From PMC3469822, “ATP-Driven Remodeling of the Linker Domain in the Dynein Motor” (Structure(London, England:1993), 2012)

Tests used:
[1] = biological target: T1, cytoplasmic dynein motor domain (380 kDa) (Dictyostelium discoideum, UniProt P34036); assay: cryo-EM reconstruction of head, […] Å; format: binding; conditions: 1 mM ADP, 4 mM MgSO4, pH 7.0; ligand itself not resolved
T1 construct: gene dhcA; tail-less motor domain V1388-I4730, N-terminal His6 and FLAG tags, 380 kDa

[2] = biological target: T2, cytoplasmic dynein motor domain (380 kDa) (Dictyostelium discoideum, UniProt P34036, E2027Q); assay: cryo-EM reconstruction of head, […] Å; format: binding; conditions: 1 mM ATP, 4 mM MgSO4, pH 7.0; AAA1 Walker B mutant that binds but does not hydrolyse ATP; ligand itself not resolved
T2 construct: gene dhcA; tail-less motor domain V1388-I4730, N-terminal His6 and FLAG tags, 380 kDa
T2 sequence (P34036 1388-4730 E2027Q): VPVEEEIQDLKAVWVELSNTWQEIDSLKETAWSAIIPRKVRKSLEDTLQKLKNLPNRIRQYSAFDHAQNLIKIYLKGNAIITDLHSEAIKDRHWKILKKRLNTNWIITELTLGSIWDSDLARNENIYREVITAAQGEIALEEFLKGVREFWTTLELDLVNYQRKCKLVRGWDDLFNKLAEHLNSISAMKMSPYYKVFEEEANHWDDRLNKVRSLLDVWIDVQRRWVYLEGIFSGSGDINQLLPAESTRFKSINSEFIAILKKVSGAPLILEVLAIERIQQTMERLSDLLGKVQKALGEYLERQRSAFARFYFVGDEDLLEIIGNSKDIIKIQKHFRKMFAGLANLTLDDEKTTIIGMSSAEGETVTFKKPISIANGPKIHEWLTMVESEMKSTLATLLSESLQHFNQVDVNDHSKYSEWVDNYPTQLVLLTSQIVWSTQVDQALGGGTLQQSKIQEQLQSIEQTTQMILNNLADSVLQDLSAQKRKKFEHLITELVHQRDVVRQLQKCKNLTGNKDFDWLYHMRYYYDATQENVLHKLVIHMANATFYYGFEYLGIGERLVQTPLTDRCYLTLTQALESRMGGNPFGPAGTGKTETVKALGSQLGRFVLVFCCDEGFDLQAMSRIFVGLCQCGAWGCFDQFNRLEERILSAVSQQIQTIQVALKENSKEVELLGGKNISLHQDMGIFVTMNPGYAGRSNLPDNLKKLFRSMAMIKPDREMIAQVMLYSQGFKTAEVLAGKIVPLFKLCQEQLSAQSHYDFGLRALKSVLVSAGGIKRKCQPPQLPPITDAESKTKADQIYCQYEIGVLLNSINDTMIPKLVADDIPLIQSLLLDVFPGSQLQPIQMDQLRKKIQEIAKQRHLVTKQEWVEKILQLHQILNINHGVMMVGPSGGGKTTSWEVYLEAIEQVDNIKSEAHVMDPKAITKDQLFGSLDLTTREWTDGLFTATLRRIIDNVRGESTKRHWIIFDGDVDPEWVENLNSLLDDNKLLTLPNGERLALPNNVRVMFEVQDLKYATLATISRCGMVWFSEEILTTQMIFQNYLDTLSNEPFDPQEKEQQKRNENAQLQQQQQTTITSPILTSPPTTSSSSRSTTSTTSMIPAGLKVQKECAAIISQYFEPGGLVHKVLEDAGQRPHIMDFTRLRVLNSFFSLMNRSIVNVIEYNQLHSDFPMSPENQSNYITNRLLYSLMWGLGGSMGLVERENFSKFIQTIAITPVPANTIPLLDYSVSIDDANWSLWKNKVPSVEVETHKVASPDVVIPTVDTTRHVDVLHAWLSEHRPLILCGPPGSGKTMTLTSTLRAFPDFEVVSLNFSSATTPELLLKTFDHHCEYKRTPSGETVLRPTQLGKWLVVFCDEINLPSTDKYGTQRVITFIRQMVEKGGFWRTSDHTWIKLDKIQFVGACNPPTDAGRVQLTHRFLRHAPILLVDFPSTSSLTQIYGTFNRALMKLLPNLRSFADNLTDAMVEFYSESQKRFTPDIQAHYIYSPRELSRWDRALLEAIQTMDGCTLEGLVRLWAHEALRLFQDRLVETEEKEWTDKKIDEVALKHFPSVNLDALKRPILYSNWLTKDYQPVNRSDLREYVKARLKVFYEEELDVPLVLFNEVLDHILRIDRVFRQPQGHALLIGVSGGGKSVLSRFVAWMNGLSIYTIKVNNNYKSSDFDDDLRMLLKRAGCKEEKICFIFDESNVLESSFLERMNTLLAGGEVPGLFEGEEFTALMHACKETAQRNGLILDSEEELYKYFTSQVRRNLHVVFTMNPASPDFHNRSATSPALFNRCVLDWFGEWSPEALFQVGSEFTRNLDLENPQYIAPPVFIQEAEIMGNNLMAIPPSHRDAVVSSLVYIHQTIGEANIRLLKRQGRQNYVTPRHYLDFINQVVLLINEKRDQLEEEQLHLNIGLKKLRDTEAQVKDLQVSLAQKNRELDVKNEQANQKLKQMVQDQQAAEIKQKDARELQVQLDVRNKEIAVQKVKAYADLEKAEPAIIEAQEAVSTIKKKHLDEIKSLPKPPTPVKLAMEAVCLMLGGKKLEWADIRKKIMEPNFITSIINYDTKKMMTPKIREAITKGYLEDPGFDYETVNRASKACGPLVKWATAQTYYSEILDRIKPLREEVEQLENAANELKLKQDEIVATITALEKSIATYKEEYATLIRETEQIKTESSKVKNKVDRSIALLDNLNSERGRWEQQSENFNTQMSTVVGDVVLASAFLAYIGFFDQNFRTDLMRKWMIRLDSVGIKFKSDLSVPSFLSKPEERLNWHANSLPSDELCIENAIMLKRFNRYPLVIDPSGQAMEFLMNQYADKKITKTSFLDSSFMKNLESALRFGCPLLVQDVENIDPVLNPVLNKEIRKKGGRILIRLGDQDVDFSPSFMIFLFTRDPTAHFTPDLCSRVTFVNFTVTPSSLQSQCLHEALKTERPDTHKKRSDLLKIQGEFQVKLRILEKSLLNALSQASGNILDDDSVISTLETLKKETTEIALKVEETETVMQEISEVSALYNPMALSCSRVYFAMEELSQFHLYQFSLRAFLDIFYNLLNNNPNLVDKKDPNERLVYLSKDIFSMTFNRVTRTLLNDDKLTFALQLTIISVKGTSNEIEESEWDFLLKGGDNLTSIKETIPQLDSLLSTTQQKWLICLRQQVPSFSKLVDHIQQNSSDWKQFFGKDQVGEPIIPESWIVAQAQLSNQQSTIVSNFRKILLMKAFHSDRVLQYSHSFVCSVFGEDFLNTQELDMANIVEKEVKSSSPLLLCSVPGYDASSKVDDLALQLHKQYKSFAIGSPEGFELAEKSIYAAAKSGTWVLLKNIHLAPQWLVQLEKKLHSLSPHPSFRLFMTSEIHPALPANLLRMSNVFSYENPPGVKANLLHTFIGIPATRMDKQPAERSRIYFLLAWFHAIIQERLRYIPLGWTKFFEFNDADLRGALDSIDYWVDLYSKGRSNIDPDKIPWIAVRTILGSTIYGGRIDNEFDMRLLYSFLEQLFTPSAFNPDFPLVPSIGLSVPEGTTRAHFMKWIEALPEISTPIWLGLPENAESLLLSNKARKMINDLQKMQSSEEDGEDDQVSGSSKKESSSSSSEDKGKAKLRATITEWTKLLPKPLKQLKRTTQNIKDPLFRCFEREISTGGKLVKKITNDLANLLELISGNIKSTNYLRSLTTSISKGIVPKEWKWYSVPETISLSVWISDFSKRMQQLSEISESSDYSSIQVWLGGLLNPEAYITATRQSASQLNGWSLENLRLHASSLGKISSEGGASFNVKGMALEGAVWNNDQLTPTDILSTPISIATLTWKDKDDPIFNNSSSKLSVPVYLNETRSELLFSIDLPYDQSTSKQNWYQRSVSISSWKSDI

T1 sequence (P34036 1388-4730): as the sequence (P34036 1388-4730 E2027Q) above, with Q640E counted along it

| Compound | cryo-EM reconstruction of head, 23 Å [1] | cryo-EM reconstruction of head, 25 Å [2] |
| --- | --- | --- |
| Nc1ncnc2c1ncn2[C@@H]1O[C@H](COP(=O)(O)OP(=O)(O)O)[C@@H](O)[C@H]1O [ADP] | Cryo-EM reconstruction of the head domain of cytoplasmic dynein in the presence of ADP |  |
| Nc1ncnc2c1ncn2[C@@H]1O[C@H](COP(=O)(O)OP(=O)(O)OP(=O)(O)O)[C@@H](O)[C@H]1O [ATP] |  | cytoplasmic dynein head, bearing a E2027Q substitution, in the ATP state |
